Where a SMILES comes first, the peptide text is derived from it. [ ]: non-standard residue; d: D form.
Assays:
[1] = tested on: C57BL/6 lymphocytes with irradiated DBA/2 cells; test: Mixed lymphocyte reaction (MLR), 3H thymidine uptake; assay type: cell-based, mice; conditions: 10^-7 M
Text: 1. Cytotoxic T Lymphocytes (CTL) Mixed Lymphocyte Reaction (MLR) and Mitogenic Response Assays
The protocols used are described in Hudson L., Haay F., Pratical immunology, 3rd edition, Blackwell, Scientific publications, Oxford 1989, p. 158-162, and p.447.
Lymphocytes were isolated from C57BL/6 mice and DBA/2 mice in accordance to techniques well known in the art. Cell concentration was adjusted to 10×10^6 cell/ml for each assay. The cells isolated from DBA/2 mice were irradiated with 3000 Rads.
In a 6 well plate, each well was set up with:
The cells were incubated for five days at 37° C. in 5% CO2, after which CTL and MLR assays were performed.
b) Mixed Lymphocyte Reaction (MLR)
Mixed lymphocyte reaction is an in vitro counterpart of the allograft rejection. Briefly, lymphocyte activation (mitotic response) is obtained when cells from two inbred strains or from two outbred individuals of any species are mixed in in vitro culture. To have a unidirectional response, the proliferation of either cell type may be blocked with X-ray irradiation or mitomycin C treatment. After 4 days incubation, ^3 H thymidine uptake and cytotoxicity assays (CTL) were performed. The cells were then resuspended and 100 μl of cell suspension was deposited in each well of a 96 well plate. 1 μCi of tritiated thymidine was added for 6 hours. After incubation, the cells were then harvested and counted using a Microbeta counter.

[2] = tested on: blood cell subsets (cell surface antigens); test: In vivo/ex vivo immunophenotyping in the blood, mice treated 4 consecutive days, blood taken on day 5; parameters: species or system C57BL/6 mice
Protocol: C57BL.backslash.6 mice are treated with 0, 50, 100, 200, and 300 mg/kg of drug (in saline) for 4 consecutive days. Blood is taken by cardiac puncture on day 5, and the lymphocytes are isolated from spleen in the following manner:
1. Immunophenotyping (blood and spleen)
Cell immunophenotyping is performed on blood and spleen. The following cell surface antigens are analyzed:
CD4 (T helper/inducer, binds class II-restricted T cells);
CD8 (cytotoxic T cells, CTL adhesion);
MAC-1 (monocyte/macrophage);
NK (natural killer cells);
CD45 (all leukocytes, protein tyrosine phosphatase).

NCCCC[C@@H](N)C(=O)N[C@@H](CC(N)=O)C(=O)N1CCC[C@H]1C(=O)N[C@@H](Cc1ccc(O)cc1)C(=O)O [PEPTIDE #5, H-(D-Lys)-Asn-Pro-Tyr-OH] (H-[dK]NPY-OH)
MLR [1]: 2.1 × | change of relative percentage of T cells (TCR, CD4+ and CD8+ cell surface antigen) (in words) [2]: reduced in a significant manner | CD4+ CD8+ cell subset, relative percentage, MEAN ([2]; 50 mg/kg, first assay): 2.03 | CD4+ CD8- cell subset, relative percentage, MEAN ([2]; 50 mg/kg, first assay): 18.15 | CD4+ CD11b+ cell subset, relative percentage, MEAN ([2]; 50 mg/kg, first assay): 1.18 | CD4+ CD11b- cell subset, relative percentage, MEAN ([2]; 50 mg/kg, first assay): 22.55 | CD4- CD8+ cell subset, relative percentage, MEAN ([2]; 50 mg/kg, first assay): 5.15 | CD4- CD8- cell subset, relative percentage, MEAN ([2]; 50 mg/kg, first assay): 74.68 | CD4- CD11b+ cell subset, relative percentage, MEAN ([2]; 50 mg/kg, first assay): 12.08 | CD4- CD11b- cell subset, relative percentage, MEAN ([2]; 50 mg/kg, first assay): 64.15 | CD45+ CD4+ cell subset, relative percentage, MEAN ([2]; 50 mg/kg, first assay): 17.00 | CD45+ CD4- cell subset, relative percentage, MEAN ([2]; 50 mg/kg, first assay): 57.68 | CD45+ CD8+ cell subset, relative percentage, MEAN ([2]; 50 mg/kg, first assay): 6.53 | CD45+ CD8- cell subset, relative percentage, MEAN ([2]; 50 mg/kg, first assay): 62.48 | CD45- CD4+ cell subset, relative percentage, MEAN ([2]; 50 mg/kg, first assay): 3.15 | CD45- CD4- cell subset, relative percentage, MEAN ([2]; 50 mg/kg, first assay): 22.15 | CD45- CD8- cell subset, relative percentage, MEAN ([2]; 50 mg/kg, first assay): 30.35 | CD45- CDE8+ cell subset, relative percentage, MEAN ([2]; 50 mg/kg, first assay): 0.68 | Ly5(B) cell subset, relative percentage, MEAN ([2]; 50 mg/kg, first assay): 57.88 | NK+ CD3+ cell subset, relative percentage, MEAN ([2]; 50 mg/kg, first assay): 2.13 | NK+ CD3- cell subset, relative percentage, MEAN ([2]; 50 mg/kg, first assay): 5.70 | NK- CD3+ cell subset, relative percentage, MEAN ([2]; 50 mg/kg, first assay): 33.30 | NK- CD3- cell subset, relative percentage, MEAN ([2]; 50 mg/kg, first assay): 58.93 | TCR(T) cell subset, relative percentage, MEAN ([2]; 50 mg/kg, first assay): 31.53 | CD4+ CD8+ cell subset, relative percentage, MEAN ([2]; 50 mg/kg, second assay): 0.43 | CD4+ CD8- cell subset, relative percentage, MEAN ([2]; 50 mg/kg, second assay): 20.65 | CD4+ CD11b+ cell subset, relative percentage, MEAN ([2]; 50 mg/kg, second assay): 0.13 | CD4+ CD11b- cell subset, relative percentage, MEAN ([2]; 50 mg/kg, second assay): 15.38 | CD4- CD8+ cell subset, relative percentage, MEAN ([2]; 50 mg/kg, second assay): 7.70 | CD4- CD8- cell subset, relative percentage, MEAN ([2]; 50 mg/kg, second assay): 71.20 | CD4- CD11b+ cell subset, relative percentage, MEAN ([2]; 50 mg/kg, second assay): 6.73 | CD4- CD11b- cell subset, relative percentage, MEAN ([2]; 50 mg/kg, second assay): 77.78 | CD45+ CD4+ cell subset, relative percentage, MEAN ([2]; 50 mg/kg, second assay): 18.48 | CD45+ CD4- cell subset, relative percentage, MEAN ([2]; 50 mg/kg, second assay): 68.23 | CD45+ CD8+ cell subset, relative percentage, MEAN ([2]; 50 mg/kg, second assay): 8.10 | CD45+ CD8- cell subset, relative percentage, MEAN ([2]; 50 mg/kg, second assay): 79.70 | CD45- CD4+ cell subset, relative percentage, MEAN ([2]; 50 mg/kg, second assay): 2.25 | CD45- CD4- cell subset, relative percentage, MEAN ([2]; 50 mg/kg, second assay): 11.05 | CD45- CD8+ cell subset, relative percentage, MEAN ([2]; 50 mg/kg, second assay): 0.03 | CD45- CD8- cell subset, relative percentage, MEAN ([2]; 50 mg/kg, second assay): 12.15 | Ly5(B) cell subset, relative percentage, MEAN ([2]; 50 mg/kg, second assay): 58.6 | NK+ CD3+ cell subset, relative percentage, MEAN ([2]; 50 mg/kg, second assay): 3.00 | NK+ CD3- cell subset, relative percentage, MEAN ([2]; 50 mg/kg, second assay): 7.88 | NK- CD3+ cell subset, relative percentage, MEAN ([2]; 50 mg/kg, second assay): 31.05 | NK- CD3- cell subset, relative percentage, MEAN ([2]; 50 mg/kg, second assay): 58.10 | TCR(T) cell subset, relative percentage, MEAN ([2]; 50 mg/kg, second assay): 35.73 | CD4+ CD8+ cell subset, relative percentage, MEAN ([2]; 100 mg/kg, first assay): 2.10 | CD4+ CD8- cell subset, relative percentage, MEAN ([2]; 100 mg/kg, first assay): 17.90 | CD4+ CD11b+ cell subset, relative percentage, MEAN ([2]; 100 mg/kg, first assay): 1.10 | CD4+ CD11b- cell subset, relative percentage, MEAN ([2]; 100 mg/kg, first assay): 20.30 | CD4- CD8+ cell subset, relative percentage, MEAN ([2]; 100 mg/kg, first assay): 6.03 | CD4- CD8- cell subset, relative percentage, MEAN ([2]; 100 mg/kg, first assay): 73.95 | CD4- CD11b+ cell subset, relative percentage, MEAN ([2]; 100 mg/kg, first assay): 11.03 | CD4- CD11b- cell subset, relative percentage, MEAN ([2]; 100 mg/kg, first assay): 67.65 | CD45+ CD4+ cell subset, relative percentage, MEAN ([2]; 100 mg/kg, first assay): 16.78 | CD45+ CD4- cell subset, relative percentage, MEAN ([2]; 100 mg/kg, first assay): 58.75 | CD45+ CD8+ cell subset, relative percentage, MEAN ([2]; 100 mg/kg, first assay): 7.10 | CD45+ CD8- cell subset, relative percentage, MEAN ([2]; 100 mg/kg, first assay): 63.45 | CD45- CD4+ cell subset, relative percentage, MEAN ([2]; 100 mg/kg, first assay): 3.25 | CD45- CD4- cell subset, relative percentage, MEAN ([2]; 100 mg/kg, first assay): 21.23 | CD45- CD8- cell subset, relative percentage, MEAN ([2]; 100 mg/kg, first assay): 28.38 | CD45- CDE8+ cell subset, relative percentage, MEAN ([2]; 100 mg/kg, first assay): 1.03 | Ly5(B) cell subset, relative percentage, MEAN ([2]; 100 mg/kg, first assay): 58.73 | NK+ CD3+ cell subset, relative percentage, MEAN ([2]; 100 mg/kg, first assay): 2.43 | NK+ CD3- cell subset, relative percentage, MEAN ([2]; 100 mg/kg, first assay): 6.00 | NK- CD3+ cell subset, relative percentage, MEAN ([2]; 100 mg/kg, first assay): 33.58 | NK- CD3- cell subset, relative percentage, MEAN ([2]; 100 mg/kg, first assay): 57.95 | TCR(T) cell subset, relative percentage, MEAN ([2]; 100 mg/kg, first assay): 32.23 | CD4+ CD8+ cell subset, relative percentage, MEAN ([2]; 100 mg/kg, second assay): 0.33 | CD4+ CD8- cell subset, relative percentage, MEAN ([2]; 100 mg/kg, second assay): 25.00 | CD4+ CD11b+ cell subset, relative percentage, MEAN ([2]; 100 mg/kg, second assay): 0.50 | CD4+ CD11b- cell subset, relative percentage, MEAN ([2]; 100 mg/kg, second assay): 21.58 | CD4- CD8+ cell subset, relative percentage, MEAN ([2]; 100 mg/kg, second assay): 6.80 | CD4- CD8- cell subset, relative percentage, MEAN ([2]; 100 mg/kg, second assay): 67.83

Reference: US5980913A, “Peptides having immunomodulatory activity” (Biochem Pharma, Inc., priority 1994, dated 1999)
